Key:
[1] = cited from earlier work
[2] = Fluorescence titration with NaCl, Bindfit 1:1 analysis, pH 7.4 10 mM aqueous HEPES buffer; assay type: binding; set-up: key to Association constant Ka Cl^−: NB: No binding observed; conditions: for Association constant Ka Cl^−: 10 μM receptors in 10 mM aqueous HEPES buffer solution, pH = 7.4, 1:1 host:guest, errors in brackets; for fluorescence response to Cl^−: excitation at 342 nm, pH 7.4 HEPES
Description: (§1) Fluorescence titration experiments were performed using a Horiba Duetta at 293 K. The host molecules (XB1-3, and HB1-3) were dissolved in 10 mM HEPES aqueous buffer solution at pH 7.4 at a concentration of 10 μM. Na salts of the appropriate anion were dissolved in the solution of the host molecule to obtain a concentration. Aliquots of the anion solution were added to 1.00 mL of the host solution in a quartz cuvette, where the sample was then thoroughly mixed before fluorescence spectra were recorded. Association constants were obtained by global analysis using BindFit, using a host-guest 1:1 binding model.
(§2) The anion sensing properties were investigated in pH 7.4 aqueous HEPES buffer solution using fluorescence spectroscopy. At this pH value the protonated forms XB3H^+ and HB3H^+ are the dominant receptor species present in the aqueous solution. The amine pKa of XB3 (10.29) and HB3 (9.98) were experimentally determined by monitoring changes in fluorescence with pH. (FIG. 16).
(§3) The fluorescence emission, following excitation at 342 nm, was monitored upon the addition of sodium hydrosulfide and halide salts.
(§4) With XB2, both Br^− and I^− were sensed (FIG. 11), with the heavier halide also being detected by XB3H^+ (FIG. 13).
(§5) Bindfit analysis^23,24 of the titration data for XB and HB receptors was used to determine 1:1 host: guest stoichiometric anion association constants, as shown below in Table 1.

[3] = Fluorescence titration with NaI, Bindfit 1:1 analysis, pH 7.4 10 mM aqueous HEPES buffer; assay type: binding; set-up: key to Association constant Ka I^−: NB: No binding observed; conditions: for Association constant Ka I^−: 10 μM receptors in 10 mM aqueous HEPES buffer solution, pH = 7.4, 1:1 host:guest, errors in brackets; for fluorescence response to I^−: excitation at 342 nm, pH 7.4 HEPES
Description: as §1, §2, §3, §4, §5

[4] = Fluorescence titration with NaBr, Bindfit 1:1 analysis, pH 7.4 10 mM aqueous HEPES buffer; assay type: binding; set-up: key to Association constant Ka Br^−: NB: No binding observed; conditions: for Association constant Ka Br^−: 10 μM receptors in 10 mM aqueous HEPES buffer solution, pH = 7.4, 1:1 host:guest, errors in brackets; for fluorescence response to Br^−: excitation at 342 nm, pH 7.4 HEPES
Description: as §1, §2, §3, §4, §5

[5] = Fluorescence emission change on addition of NaCl, NaBr, NaI, NaHS in pH 7.4 HEPES buffer (any anion); assay type: binding
Description: as §1, §3, §4

[6] = Fluorescence titration with NaHS, Bindfit 1:1 analysis and LoD, pH 7.4 10 mM aqueous HEPES buffer; assay type: binding; set-up: key to Association constant Ka HS^− / LoD, Limit of Detection for HS−: NB: No binding observed; conditions: for Association constant Ka HS^−: 10 μM receptors in 10 mM aqueous HEPES buffer solution, pH = 7.4, 1:1 host:guest, errors in brackets; for LoD, Limit of Detection for HS−: 10 μM receptors in 10 mM aqueous HEPES buffer, pH 7.4
Description: as §1, §2
The fluorescence emission, following excitation at 342 nm, was monitored upon the addition of sodium hydrosulfide and halide salts. […]
as §5

[7] = pKa determined by monitoring changes in fluorescence with pH; assay type: physicochemical; conditions: for pKa1 / pKa2: emission intensity change with changing pH; for amine pKa: monitoring changes in fluorescence with pH
From the text: FIG. 16. XB3: a) XB3 emission intensity change with decreasing pH; b) Emission intensity change for select wavelengths with changing pH; pKa1=4.07 (±0.01), pKa2=10.29 (±0.01). HB3: a) HB3 emission intensity change with decreasing pH; b) Emission intensity change for select wavelengths with changing pH; pKa1=5.91 (±0.07), pKa2=9.98 (±0.01).
as §2

Water solubility = assay type: physicochemical
[8] = Fluorescence response of BODIPY receptors in H2O/30% ACN upon titration with various anions; assay type: binding; conditions: 70% water/30% acetonitrile
From the text: (§6) Any observed fluorescence quenching in water could be readily circumvented by addition of a small amount of organic co-solvent. Preliminary solution-phase fluorescence sensing studies of both receptors were thus carried out in 70% water/30% acetonitrile.

[9] = Electrospray mass spectrometry monitoring for reaction with excess HS^−; assay type: physicochemical; conditions: 10 μM in 10 mM HEPES aqueous buffer (7.4 pH), excess equivalents of HS^−
From the text: (§7) However, the increase in binding strength comes at the expense of a diminished degree of selectivity for HS^− as XB2 also binds Br^− and in particular I^− strongly.

[10] = Fluorescence titration of buffered receptor against NaOH; conditions: buffered 10 μM receptor
From the text: as §7

[11] = Fluorescence titration of XB4 with NaBr in unbuffered water, BindFit; assay type: binding; conditions: unbuffered water at 298 K
Description: (§8) Fluorescence titrations of XB4 were carried out with chloride, bromide, iodide and hydrosulfide.
(§9) BindFit analysis for each anion to determine binding isotherms (FIG. 20), and 1:1 stoichiometric association constants, shown in Table 2, was also conducted for XB4.

[12] = Fluorescence titration of XB4 with NaCl in unbuffered water, BindFit; assay type: binding; set-up: key: N.B.: No Binding; conditions: unbuffered water at 298 K; errors in parentheses
Description: as §8, §9

[13] = Fluorescence titration of XB4 with NaI in unbuffered water, BindFit; assay type: binding; conditions: unbuffered water at 298 K
Description: as §8, §9

[14] = Fluorescence titration of XB4 with NaSH in unbuffered water, BindFit; assay type: binding; conditions: unbuffered water at 298 K
Description: as §8, §9

[15] = Solution-phase fluorescence sensing of BODIPY receptors in 70% water/30% acetonitrile; assay type: binding
From the text: as §6

[16] = excitation at 342 nm, pH 7.4 HEPES

For `S` [Compound H2S, hydrogen sulphide], the pKa [1] is listed as 7.0.

With `COCCOCCOCCOc1cc(COc2ccc3cc(-n4cc(-c5cncc(-c6cn(-c7cc8ccc(OCc9cc(OCCOCCOCCOC)c(OCCOCCOCCOC)c(OCCOCCOCCOC)c9)cc8oc7=O)nn6)c5)nn4)c(=O)oc3c2)cc(OCCOCCOCCOC)c1OCCOCCOCCOC` [HB1, reference compound] the “Association constant Ka Cl^−” value [2] was “NB”, the “Association constant Ka I^−” value [3] was “NB” and the “Association constant Ka Br^−” value [4] was “NB”. The “fluorescent response to any anion” value [5] was “only minor fluorescence perturbations”, the “Association constant Ka HS^−” value [6] was “NB” and the “LoD, Limit of Detection for HS−” value [6] was “NB”.

In the case of `COCCOCCOCCOc1cc(COc2ccc3cc(-n4cc(CNCc5cn(-c6cc7ccc(OCc8cc(OCCOCCOCCOC)c(OCCOCCOCCOC)c(OCCOCCOCCOC)c8)cc7oc6=O)nn5)nn4)c(=O)oc3c2)cc(OCCOCCOCCOC)c1OCCOCCOCCOC` [HB3, reference compound], the “Association constant Ka Cl^−” value [2] is reported as “NB”, the “Association constant Ka I^−” value [3] is reported as “NB” and the pKa1 [7] is reported as 5.91 (±0.07). The pKa2 [7] was 9.98 (±0.01), the “amine pKa” value [7] was 9.98 and the “Association constant Ka Br^−” value [4] was “NB”. For the same compound, the “fluorescent response to any anion” value [5] was “no fluorescent response to any anion”, the “Association constant Ka HS^−” value [6] was “NB” and the “LoD, Limit of Detection for HS−” value [6] was “NB”.

In the case of `COCCOCCOCCOc1cc(COC(=O)c2cc(-n3cc(C4=C5C(C)=CC(C)=[N+]5[B-](F)(F)n5c(C)cc(C)c54)nn3)cc(-n3cc(C4=C5C(C)=CC(C)=[N+]5[B-](F)(F)n5c(C)cc(C)c54)nn3)c2)cc(OCCOCCOCCOC)c1OCCOCCOCCOC` [HB-BDP-PEG, reference compound], the water solubility (Water solubility) is reported as “generally water soluble” and the “response for all anions, in particular HS^−, compared with XB-BDP-PEG” value [8] is reported as “significantly diminished”.

For `COCCOCCOCCOc1cc(COc2ccc3cc(-n4nnc(-c5cncc(-c6nnn(-c7cc8ccc(OCc9cc(OCCOCCOCCOC)c(OCCOCCOCCOC)c(OCCOCCOCCOC)c9)cc8oc7=O)c6I)c5)c4I)c(=O)oc3c2)cc(OCCOCCOCCOC)c1OCCOCCOCCOC` [XB1], the “Association constant Ka Cl^−” value [2] was “NB”, the “fluorescence response to Cl^−” value [2] was “no intensity diminutions” and the “reaction with HS^− (electrospray mass spectrometry)” value [9] was “no evidence of reaction was observed”. The “Association constant Ka I^−” value [3] was “NB”, the “fluorescence response to I^−” value [3] was “no intensity diminutions” and the “Association constant Ka Br^−” value [4] was “NB”. For the same compound, the “fluorescence response to Br^−” value [4] was “no intensity diminutions”, the “Association constant Ka HS^−” value [6] was 16500 (1600) M^−1 and the fluorescence intensity quenched ([6]; 10 equivalents of HS^−, excitation at 342 nm, pH 7.4 HEPES) was 60%.

For `COCCOCCOCCOc1cc(COc2ccc3cc(-n4nnc(-c5cc(-c6nnn(-c7cc8ccc(OCc9cc(OCCOCCOCCOC)c(OCCOCCOCCOC)c(OCCOCCOCCOC)c9)cc8oc7=O)c6I)c[n+](C)c5)c4I)c(=O)oc3c2)cc(OCCOCCOCCOC)c1OCCOCCOCCOC.O=S(=O)([O-])C(F)(F)F` [XB2], the “Association constant Ka Cl^−” value [2] was “NB”, the “fluorescence response to Cl^−” value [2] was “no change was observed” and the “Association constant Ka I^−” value [3] was 103000 (24000) M^−1. The “fluorescence response to I^−” value [3] was “sensed”, the “Association constant Ka Br^−” value [4] was 60800 M⁻¹ and the “fluorescence response to Br^−” value [4] was “sensed”. For the same compound, the “Association constant Ka HS^−” value [6] was 158000 (31000) M^−1 and the “quenching on addition of HS^−” value [6, 16] was 45%.

In the case of `COCCOCCOCCOc1cc(COc2ccc3cc(-n4nnc(CNCc5nnn(-c6cc7ccc(OCc8cc(OCCOCCOCCOC)c(OCCOCCOCCOC)c(OCCOCCOCCOC)c8)cc7oc6=O)c5I)c4I)c(=O)oc3c2)cc(OCCOCCOCCOC)c1OCCOCCOCCOC` [XB3], the “Association constant Ka Cl^−” value [2] is reported as “NB”, the “fluorescence response to Cl^−” value [2] is reported as “no change was observed” and the “Association constant Ka I^−” value [3] is reported as 46000 (14000) M^−1. For the same compound, the “fluorescence response to I^−” value [3] was “detected”, the pKa1 [7] was 4.07 (±0.01) and the pKa2 [7] was 10.29 (±0.01). For the same compound, the “amine pKa” value [7] was 10.29, the “Association constant Ka Br^−” value [4] was “NB” and the “change in fluorescence on titration against NaOH” value [10] was “no change in fluorescence”. The “Association constant Ka HS^−” value [6] was 5600 (530) M^−1, the “LoD, Limit of Detection for HS−” value ([6]; listed as XB3H^+) was 24.6 µM and the “quenching on addition of HS^−” value [6, 16] was 38%.

With `COCCOCCOCCN(CCCOc1ccc2cc(-n3nnc(CNCc4nnn(-c5cc6ccc(OCCCN(CCOCCOCCOC)CCOCCOCCOC)cc6oc5=O)c4I)c3I)c(=O)oc2c1)CCOCCOCCOC` [XB4] the “coumarin fluorescence response to bromide” value [11] was “switching off”, the “Association constant Ka Br^−” value ([11]; errors in parentheses) was >10^5 M^−1 and the “Association constant Ka Cl^−” value [12] was “N.B”. For the same compound, the “coumarin fluorescence response to iodide” value [13] was “switching off”, the “Association constant Ka I^−” value ([13]; errors in parentheses) was >10^5 M^−1 and the “coumarin fluorescence response to hydrosulfide” value [14] was “switching off”. For the same compound, the “Association constant Ka HS^−” value ([14]; errors in parentheses) was 7500 (660) M^−1.

For `COCCOCCOCCOc1cc(COC(=O)c2cc(-n3nnc(C4=C5C(C)=CC(C)=[N+]5[B-](F)(F)n5c(C)cc(C)c54)c3I)cc(-n3nnc(C4=C5C(C)=CC(C)=[N+]5[B-](F)(F)n5c(C)cc(C)c54)c3I)c2)cc(OCCOCCOCCOC)c1OCCOCCOCCOC` [XB-BDP-PEG], the “fluorescence perturbation by I^−” value [15] was “Smaller, but notable, perturbations”, the “fluorescence perturbation by SCN^−” value [15] was “Smaller, but notable, perturbations” and the “fluorescence response to Br” value [15] was “only very small responses”. For the same compound, the “fluorescence response to Cl” value [15] was “only very small responses”, the “emission quenching by HS^−” value ([15]; preliminary) was “≈ 65%” and the water solubility (Water solubility) was “generally water soluble”.

Reference: patent publication US20250164397A1, “SULPHIDE SENSOR” (Oxford University Innovation Limited, priority 2021, published 2025)
